Results: the NIST ThermoML archive (doi:10.1016/j.jct.2013.09.015)

Legend:
[1] = 298.15 K, 101.33 kPa, Liquid; for speed of sound: Sing-around technique in a fixed-path interferometer; for mass density: Vibrating tube method
[2] = excess molar enthalpy (molar enthalpy of mixing); xn = mol fraction of the nth substance listed; conditions: 298.15 K, 101 kPa, Liquid, Calvet calorimetry

CCn1cc[n+](C)c1.F[B-](F)(F)F [1-ethyl-3-methylimidazolium tetrafluoroborate]
[1]
Conditions	mass density [kg/m3]	speed of sound [m/s]
–	1279.91	1619.4

CCn1cc[n+](C)c1.F[B-](F)(F)F [1-ethyl-3-methylimidazolium tetrafluoroborate] + O
[2]
Conditions	excess molar enthalpy [kcal/mol]
x1 = 0.1136	0.0374
x1 = 0.1678	0.0537
x1 = 0.2249	0.0693
x1 = 0.2734	0.0812
x1 = 0.331	0.0934
x1 = 0.3615	0.0989
x1 = 0.4325	0.109
x1 = 0.4709	0.112
x1 = 0.5314	0.115
x1 = 0.5722	0.115
x1 = 0.6291	0.113
x1 = 0.6685	0.109
x1 = 0.7311	0.0986
x1 = 0.771	0.0898
x1 = 0.8324	0.0724
x1 = 0.8694	0.0596
x1 = 0.9103	0.0434
x1 = 0.9311	0.0343

O=C1CCCN1 [2-pyrrolidinone]
[1]
Conditions	mass density [kg/m3]	speed of sound [m/s]
–	1107.15	1633.9

O=C1CCCN1 [2-pyrrolidinone] + O
[2]
Conditions	excess molar enthalpy [kcal/mol]
x1 = 0.1013	-0.0589
x1 = 0.136	-0.0776
x1 = 0.1745	-0.0978
x1 = 0.2319	-0.125
x1 = 0.2775	-0.145
x1 = 0.3351	-0.166
x1 = 0.3813	-0.18
x1 = 0.4343	-0.193
x1 = 0.4783	-0.2
x1 = 0.5401	-0.205
x1 = 0.5713	-0.206
x1 = 0.6264	-0.201
x1 = 0.6771	-0.192
x1 = 0.7314	-0.177
x1 = 0.7693	-0.162
x1 = 0.8326	-0.13
x1 = 0.8951	-0.0899
x1 = 0.9204	-0.0708

O=C1CCCN1 [2-pyrrolidinone] + c1ccncc1
[2]
Conditions	excess molar enthalpy [kcal/mol]
x1 = 0.1213	0.0217
x1 = 0.1715	0.029
x1 = 0.2336	0.0366
x1 = 0.2615	0.0394
x1 = 0.3255	0.0446
x1 = 0.3701	0.0471
x1 = 0.4291	0.0489
x1 = 0.4711	0.0493
x1 = 0.5256	0.0485
x1 = 0.5713	0.0469
x1 = 0.6364	0.0431
x1 = 0.6716	0.0404
x1 = 0.7315	0.0348
x1 = 0.7619	0.0315
x1 = 0.8311	0.0232
x1 = 0.8751	0.0174
x1 = 0.9204	0.0112
x1 = 0.9344	0.00927

CN1CCCC1=O [N-methylpyrrolidone]
[1]
Conditions	mass density [kg/m3]	speed of sound [m/s]
–	1028.23	1546

c1ccncc1 [pyridine]
[1]
Conditions	mass density [kg/m3]	speed of sound [m/s]
–	978.252	1417.8

c1ccncc1 [pyridine] + CN1CCCC1=O
[2]
Conditions	excess molar enthalpy [kcal/mol]
x2 = 0.0911	-0.0363
x2 = 0.1426	-0.052
x2 = 0.1985	-0.0669
x2 = 0.2312	-0.0755
x2 = 0.2854	-0.086
x2 = 0.312	-0.0903
x2 = 0.3789	-0.097
x2 = 0.443	-0.103
x2 = 0.4995	-0.104
x2 = 0.5478	-0.102
x2 = 0.5851	-0.1
x2 = 0.6359	-0.0959
x2 = 0.6982	-0.0895
x2 = 0.725	-0.0852
x2 = 0.7732	-0.0742
x2 = 0.8489	-0.0552
x2 = 0.8923	-0.0427
x2 = 0.9156	-0.0345
